We go through one compound from patent US12091405B2, “Substituted pyrazole compounds as indoleamine 2,3-dioxygenase inhibitors” (Merck Sharp & Dohme LLC, priority 2018, dated 2024).

In assay [1] the target is T1, IDO1 (Homo sapiens, UniProt P14902). The experiment in a line: IDO1 Cellular Assay in HeLa Cells Stimulated with IFNγ. The following applies: IFNγ 100 ng/mL, 300 uM L-tryptophan, about 48 hours, fluorescence readout, read-out: IDO1 HELA Cell Assay, IC50. The assay is classed as cell-based.
T1 sequence (P14902 whole entry): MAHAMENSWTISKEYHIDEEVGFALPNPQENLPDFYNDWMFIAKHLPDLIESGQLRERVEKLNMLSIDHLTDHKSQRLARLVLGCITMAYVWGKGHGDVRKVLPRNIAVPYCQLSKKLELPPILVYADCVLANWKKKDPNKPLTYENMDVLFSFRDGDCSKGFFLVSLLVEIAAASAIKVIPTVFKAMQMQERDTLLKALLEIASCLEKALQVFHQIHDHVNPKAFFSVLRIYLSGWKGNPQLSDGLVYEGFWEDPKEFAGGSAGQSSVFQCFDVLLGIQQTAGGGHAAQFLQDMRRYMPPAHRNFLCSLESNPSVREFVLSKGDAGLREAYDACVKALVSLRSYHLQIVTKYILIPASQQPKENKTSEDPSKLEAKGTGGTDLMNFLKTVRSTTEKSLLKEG
For assay [2], the target named is T1, IDO1. As to the kind of experiment: IDO1 Human Whole Blood Assay. The format is cell-based. Details: Human whole blood was drawn in sodium heparin coated tubes from healthy internal donors; from tissue; host or cells: human whole blood from healthy donors, stimulated with LPS and IFNγ. The following applies: LPS and IFNγ 100 ng/mL, overnight (18 h), kynurenine by LC/MS/MS. Here is the method: IDO1 Human Whole Blood Assay
Compounds to be tested were serially diluted in ten 3-fold steps in DMSO starting from 10 mM. 3 μL of compound dilutions or DMSO alone were then dispensed from the dilution plate into a polypropylene 96-well assay plate containing 97 μL of RPMI medium using an Echo 555 acoustic liquid handler (Labcyte). LPS and IFNγ was prepared in RPMI medium to a 10× of final conc. (1000 ng/mL), final concentration is 100 ng/mL.
Human whole blood was drawn in sodium heparin coated tubes from healthy internal donors. 240 μL of blood was transferred to each of the wells of a v-bottom 96 well plate. 30 μL of compound was transferred from intermediate dilution plate, and incubated for 15 min. 30 μL from stimulants was then transferred to blood and mixed thoroughly. Plate was covered with breathable membrane and incubated at 37° C. for overnight (18 h).
On day 2, isotope labeled standard solutions of kynurenine and tryptophan was made in water at 10× concentration and 30 μL was added to the blood at 3 μM final concentration. The assay plates were centrifuged at 300×G for 10 min with no brake to separate plasma from red blood cells. 60 μL of plasma samples was removed without disturbing red blood cells. Plasma was diluted with RPMI in 1:1 ratio and proteins were precipitated out with two volumes of Acetonitrile. The plates were centrifuged at 4000×G for 60 min. 20 μL of supernatant was carefully transferred to a 384 well plate containing 40 μL of 0.1% formic acid in water and analyzed by LC/MS/MS.
LC/MS/MS analyses were performed using Thermo Fisher's LX4-TSQ Quantum Ultra system. This system consists of four Agilent binary high-performance liquid chromatography (HPLC) pumps and a TSQ Quantum Ultra triple quadrupole MS/MS instrument. For each sample, 5 μL were injected onto an Atlantis T3 column (2.1 mm×150 mm, 3 μm particle size) from Waters. The mobile phase gradient pumped at 0.8 mL/min was used to elute the analytes from the column at 25 EC. The elution started at 0% B increasing linearly to 25% B at 6.5 min, holding at 25% for 1 min, re-equilibrating to 10 min. Mobile phase A consisted of 0.1% formic acid in water. Mobile phase B consisted of 0.1% of formic acid in acetonitrile. Data were acquired in positive mode using a HESI interface. The operational parameters for the TSQ Quantum Ultra instrument were a spray voltage of 4000 V, capillary temperature of 380° C., vaporizer temperature 400° C., shealth gas 60 arbitrary units, Aux gas 20 arbitrary units, tube lens 85 and collision gas 1.2 mTorr. SRM chromatograms of kynurenine (Qi: 209.2>Q3:94.0) and internal standard (Qi: 215.3>Q3:98.2) were collected for 90 sec. The peak area was integrated by Xcalibur Quan software. The ratios between the kynurenine generated in the reaction and 2D6-Kynurenine spiked-in internal standard were used to generate percentage inhibition and IC50 values. Compounds were titrated and IC50's were calculated by 4 parameter sigmoidal curve fitting formula.
The biological activity data of selective compounds using the IDO1 human whole blood assay described above are summarized in the table below.

As a reminder, the IC50 is the concentration needed to halve the response being measured. Consider `Cc1c(Cl)cccc1C1CCN(C(=O)Cn2nc(C(=O)N3C[C@@H](C)O[C@@H](C)C3)c3c2CCC3)CC1` [Example 82, 1-[4-(3-chloro-2-methylphenyl)piperidin-1-yl]-2-{3-[(2R,6S)-2,6-dimethylmorpholine-4-carbonyl]-5,6-dihydrocyclopenta[c]pyrazol-1(4H)-yl}ethan-1-one], for which the results for the 50% inhibitory concentration (IC50) in assay [1] and in assay [2] were 3.5 nM and 435 nM, respectively.
